In article PMC3240716 (Journal of medicinal chemistry, 2011):
Entries after “also recorded” stand apart in the source; their conditions may differ.

Legend:
[1] = target: Hα4β2 nAChRs (Homo sapiens, UniProt P17787+P43681); assay: Calcium accumulation assay, HEK ts201 cells stably expressing Hα4β2 nAChRs; type: cell-based; conditions: for effect / activity on Hα4β2 nAChRs: up to 100 µM
[2] = target: Hα3β4 nAChRs (Homo sapiens, UniProt P30926+P32297); assay: Calcium accumulation assay, HEK ts201 cells stably expressing Hα3β4 nAChRs; type: cell-based; conditions: for effect / activity on Hα3β4 nAChRs: up to 100 µM
Chain of Hα3β4 nAChRs (P32297 32-505): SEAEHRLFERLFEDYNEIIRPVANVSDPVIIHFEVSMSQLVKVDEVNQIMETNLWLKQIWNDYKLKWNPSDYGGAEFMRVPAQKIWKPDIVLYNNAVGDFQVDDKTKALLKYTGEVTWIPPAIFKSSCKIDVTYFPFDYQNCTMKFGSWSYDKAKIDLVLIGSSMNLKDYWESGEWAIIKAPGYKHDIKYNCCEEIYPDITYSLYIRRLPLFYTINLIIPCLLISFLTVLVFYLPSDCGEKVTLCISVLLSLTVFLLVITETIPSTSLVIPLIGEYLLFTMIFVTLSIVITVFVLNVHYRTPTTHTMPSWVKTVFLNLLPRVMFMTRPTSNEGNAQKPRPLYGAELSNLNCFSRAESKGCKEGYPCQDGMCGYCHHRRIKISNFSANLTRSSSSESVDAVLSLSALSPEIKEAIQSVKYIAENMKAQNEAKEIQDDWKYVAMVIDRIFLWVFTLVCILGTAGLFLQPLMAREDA
Chain of Hα3β4 nAChRs (P30926 22-498): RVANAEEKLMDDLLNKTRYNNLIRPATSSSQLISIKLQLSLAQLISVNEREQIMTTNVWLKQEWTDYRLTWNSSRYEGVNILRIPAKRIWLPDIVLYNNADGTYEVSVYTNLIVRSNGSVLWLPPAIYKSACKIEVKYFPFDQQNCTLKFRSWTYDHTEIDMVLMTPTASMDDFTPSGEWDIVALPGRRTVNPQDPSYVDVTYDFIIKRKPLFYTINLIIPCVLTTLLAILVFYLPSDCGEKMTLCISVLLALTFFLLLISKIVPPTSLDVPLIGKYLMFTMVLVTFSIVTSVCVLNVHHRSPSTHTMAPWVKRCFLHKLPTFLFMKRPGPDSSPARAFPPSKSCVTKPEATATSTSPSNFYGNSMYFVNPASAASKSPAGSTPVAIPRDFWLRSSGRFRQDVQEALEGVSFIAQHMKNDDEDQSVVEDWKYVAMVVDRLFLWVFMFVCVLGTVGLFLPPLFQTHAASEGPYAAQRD

[3] = 30 µM compound, competitive vs non-competitive test, n=4
[4] = approximate, concentration used in Figure 1

Chain of Hα4β2 nAChRs (P43681 29-627 limits assumed): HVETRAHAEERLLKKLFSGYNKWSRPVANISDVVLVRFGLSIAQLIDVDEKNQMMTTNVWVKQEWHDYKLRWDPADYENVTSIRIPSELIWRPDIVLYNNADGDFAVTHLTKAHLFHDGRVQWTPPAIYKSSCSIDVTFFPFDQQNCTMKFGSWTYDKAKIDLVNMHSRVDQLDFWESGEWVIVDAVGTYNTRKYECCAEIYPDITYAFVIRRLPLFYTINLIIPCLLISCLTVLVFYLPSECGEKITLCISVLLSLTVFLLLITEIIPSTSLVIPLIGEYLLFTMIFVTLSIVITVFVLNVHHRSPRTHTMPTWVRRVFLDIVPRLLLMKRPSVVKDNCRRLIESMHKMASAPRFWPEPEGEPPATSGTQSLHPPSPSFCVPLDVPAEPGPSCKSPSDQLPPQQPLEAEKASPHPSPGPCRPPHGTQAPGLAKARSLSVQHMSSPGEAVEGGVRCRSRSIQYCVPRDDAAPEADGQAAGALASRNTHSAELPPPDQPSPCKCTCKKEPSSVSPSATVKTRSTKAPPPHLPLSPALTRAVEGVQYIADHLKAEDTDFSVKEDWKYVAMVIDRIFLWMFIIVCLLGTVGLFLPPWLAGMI
Chain of Hα4β2 nAChRs (P17787 26-502): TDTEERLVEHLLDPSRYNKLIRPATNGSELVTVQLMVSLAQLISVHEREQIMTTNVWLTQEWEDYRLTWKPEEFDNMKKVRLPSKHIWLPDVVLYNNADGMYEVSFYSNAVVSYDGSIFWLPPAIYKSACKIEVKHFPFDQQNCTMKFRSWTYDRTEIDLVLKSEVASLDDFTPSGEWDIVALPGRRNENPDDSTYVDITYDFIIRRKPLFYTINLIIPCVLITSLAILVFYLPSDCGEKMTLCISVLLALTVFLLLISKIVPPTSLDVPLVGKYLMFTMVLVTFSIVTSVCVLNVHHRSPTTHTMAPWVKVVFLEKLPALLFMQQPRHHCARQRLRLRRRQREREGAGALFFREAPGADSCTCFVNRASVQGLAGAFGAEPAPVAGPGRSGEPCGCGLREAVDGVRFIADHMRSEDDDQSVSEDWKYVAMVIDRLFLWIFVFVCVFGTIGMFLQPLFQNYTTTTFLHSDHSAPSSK

O=C(CN1CCN(S(=O)(=O)c2ccc(F)cc2)CC1)Nc1ccccc1F [Compound 1, N-(2-fluorophenyl)-2-(4-((4-fluorophenyl)sulfonyl)piperazin-1-yl)acetamide]
effect on epibatidine concentration-response, Hα4β2 nAChRs [1, 3]: reduced the maximum efficacy
IC70, Hα4β2 nAChRs [1, 4]: ~30 µM
effect on epibatidine concentration-response, Hα3β4 nAChRs [2, 3]: reduced the maximum efficacy
IC70, Hα3β4 nAChRs [2, 4]: ~30 µM

O=S(=O)(c1ccc(F)cc1)N1CCNCC1 [Compound 3, 1-([4-fluorophenyl]sulfonyl)piperazine]
effect / activity on Hα4β2 nAChRs [1]: no effect
effect / activity on Hα3β4 nAChRs [2]: no effect

O=C(CN1CCN(S(=O)(=O)c2ccc(F)cc2)CC1)Nc1ccc2[nH]ncc2c1 [Compound 11, 2-(4-((4-fluorophenyl)sulfonyl)piperazin-1-yl)-N-(1H-indazol-5-yl)acetamide]
change in potency for Hα4β2 nAChRs ([1]; compared to lead compound 1): slight increase
fold decrease in potency for Hα3β4 nAChRs ([2]; compared to lead compound 1): 3 fold

O=C(CN1CCN(S(=O)(=O)c2ccc(F)cc2)CC1)Nc1cc[nH]n1 [Compound 12, 2-(4-((4-fluorophenyl)sulfonyl)piperazin-1-yl)-N-(1H-pyrazol-3-yl)acetamide]
change in potency for Hα4β2 nAChRs ([1]; compared to lead compound 1): significant decrease
effect / activity on Hα4β2 nAChRs [1]: abolished activity; also recorded: loss of activity
change in potency for Hα3β4 nAChRs ([2]; compared to lead compound 1): significant decrease
effect / activity on Hα3β4 nAChRs [2]: abolished activity; also recorded: loss of activity

COc1ccc(NC(=O)CN2CCN(S(=O)(=O)c3ccc(F)cc3)CC2)cc1 [Compound 13, 2-(4-((4-fluorophenyl)sulfonyl)piperazin-1-yl)-N-(4-methoxyphenyl)acetamide]
fold decrease in potency for Hα4β2 nAChRs ([1]; compared to lead compound 1): 2 fold
fold decrease in potency for Hα3β4 nAChRs ([2]; compared to lead compound 1): 3 fold

O=C(CN1CCN(S(=O)(=O)c2ccc(F)cc2)CC1)Nc1ccc(F)cc1 [Compound 14, N-(4-fluorophenyl)-2-(4-((4-fluorophenyl)sulfonyl)-piperazin-1-yl)acetamide]
change in potency for Hα4β2 nAChRs ([1]; compared to lead compound 1): no significant change
change in potency for Hα3β4 nAChRs ([2]; compared to lead compound 1): no significant change

O=C(CN1CCN(S(=O)(=O)c2ccc(F)cc2)CC1)Nc1ccccc1 [Compound 15, 2-(4-((4-fluorophenyl)sulfonyl)piperazin-1-yl)-N-phenylacetamide]
change in potency for Hα4β2 nAChRs ([1]; compared to lead compound 1): no significant change
fold decrease in potency for Hα3β4 nAChRs ([2]; compared to lead compound 1): 2 fold

O=C(CN1CCN(S(=O)(=O)c2ccccc2F)CC1)Nc1ccccc1F [Compound 16, N-(2-fluorophenyl)-2-(4-((2-fluorophenyl)sulfonyl)-piperazin-1-yl)acetamide]
change in potency for Hα4β2 nAChRs ([1]; compared to lead compound 1): no significant change

O=C(CN1CCN(S(=O)(=O)c2cccnc2)CC1)Nc1ccccc1F [Compound 17, N-(2-fluorophenyl)-2-(4-(pyridin-3-ylsulfonyl)piperazin-1-yl)acetamide]
fold decrease in potency for Hα4β2 nAChRs ([1]; compared to lead compound 1): 2 fold
fold decrease in potency for Hα3β4 nAChRs ([2]; compared to lead compound 1): 5 fold

O=C(CN1CCN(S(=O)(=O)c2ccccc2)CC1)Nc1ccccc1F [Compound 18, N-(2-fluorophenyl)-2-(4-(phenylsulfonyl)piperazin-1-yl)acetamide]
fold increase in potency for Hα4β2 nAChRs ([1]; compared to lead compound 1): 2 fold
fold increase in potency for Hα3β4 nAChRs ([2]; compared to lead compound 1): 2 fold

COc1ccc(S(=O)(=O)N2CCN(CC(=O)Nc3ccccc3F)CC2)cc1 [Compound 19, N-(2-fluorophenyl)-2-(4-((4-methoxyphenyl)sulfonyl)-piperazin-1-yl)acetamide]
change in potency for Hα4β2 nAChRs ([1]; compared to lead compound 1): no significant change
change in potency for Hα3β4 nAChRs ([2]; compared to lead compound 1): no significant change

O=C(CN1CCN(S(=O)(=O)c2ccccc2F)CC1)Nc1ccc(F)cc1 [Compound 20, N-(4-fluorophenyl)-2-(4-((2-fluorophenyl)sulfonyl)-piperazin-1-yl)acetamide]
change in potency for Hα4β2 nAChRs ([1]; compared to analog 16): no change
fold increase in potency for Hα3β4 nAChRs ([2]; compared to analog 16): 6 fold

COc1ccc(NC(=O)CN2CCN(S(=O)(=O)c3ccccc3F)CC2)cc1 [Compound 21, 2-(4-((2-fluorophenyl)sulfonyl)piperazin-1-yl)-N-(4-methoxyphenyl)acetamide]
fold decrease in potency for Hα4β2 nAChRs ([1]; compared to analog 16): 2 fold
fold increase in potency for Hα3β4 nAChRs ([2]; compared to analog 16): 4 fold

COC(=O)c1ccc(NC(=O)CN2CCN(S(=O)(=O)c3ccccc3F)CC2)cc1 [Compound 22, methyl 4-(2-(4-((2-fluorophenyl)sulfonyl)piperazin-1-yl)acetamido)benzoate]
change in potency for Hα4β2 nAChRs ([1]; compared to analog 16): no significant change
fold increase in potency for Hα3β4 nAChRs ([2]; compared to analog 16): 8 fold

O=C(CN1CCN(S(=O)(=O)c2ccccc2F)CC1)Nc1ccc(C(=O)O)cc1 [Compound 23, 4-(2-(4-((2-fluorophenyl)sulfonyl)piperazin-1-yl)acetamido)benzoic acid]
effect / activity on Hα4β2 nAChRs [1]: loss of activity
effect / activity on Hα3β4 nAChRs [2]: loss of activity

O=C(CN1CCN(S(=O)(=O)c2ccccc2F)CC1)Nc1cc[nH]n1 [Compound 24, 2-(4-((2-fluorophenyl)sulfonyl)piperazin-1-yl)-N-(1H-pyrazol-3-yl)acetamide]
effect / activity on Hα4β2 nAChRs [1]: loss of activity
effect / activity on Hα3β4 nAChRs [2]: loss of activity

COc1ccc(NC(=O)CN2CCN(S(=O)(=O)c3cccnc3)CC2)cc1 [Compound 26, N-(4-methoxyphenyl)-2-(4-(pyridin-3-ylsulfonyl)-piperazin-1-yl)acetamide]
change in potency for Hα4β2 nAChRs ([1]; compared to lead compound 1): significant decrease
change in potency for Hα3β4 nAChRs ([2]; compared to lead compound 1): significant decrease

COc1ccc(S(=O)(=O)N2CCN(CC(=O)Nc3ccc(F)cc3)CC2)cc1 [Compound 28, N-(4-fluorophenyl)-2-(4-((4-methoxyphenyl)sulfonyl)-piperazin-1-yl)acetamide]
fold decrease in potency for Hα4β2 nAChRs ([1]; compared to lead compound 1): 2 fold
fold decrease in potency for Hα3β4 nAChRs ([2]; compared to lead compound 1): 2 fold
